Assay results taken from patent publication US9642835B2, “Modulators of GTPase and use in relevant treatment” (STC.UNM, priority 2010, dated 2017).

Key:
[1] = molecular target: His-Cdc42 binding to GST-PAK-PBD (Homo sapiens, UniProt P60953); assay: In vitro Cdc42-GTPγS formation PAK-PBD pull-down; type: biochemical; details: 10 μM inhibitor
Experimental: For analysis of the effect of MLS000693334 on the formation of the GTP-bound form of Cdc42 in vitro, 40 nM His-Cdc42 wt incubated (20 min at 30 C) with various concentration of GTPγS in the presence of 1 mM EDTA containing NP-HPS buffer. Reaction stopped by adding of excess amount of MgCl2. Mixture incubated with 15 μl PAK-PBD/beads (Cytoskeleton Inc., Denver, Colo.) for 1 h. Washed 2× and active Cdc42 analyzed by Western blot using mAb for Cdc42 (Cytoskeleton Inc., Denver, Colo.) and Mouse TrueBlot Ultra: Horseradish Peroxidase anti-mouse IgG (eBioscience. San Diego, Calif.) followed by ECL (Thermo Scientific, Rockford, Ill.).
For in vitro Cdc42 activation measurements, DMSO or an equal volume of SID57578341 in DMSO were incubated for 20 min at 30° C. with 40 nM His-Cdc42 protein and varying concentrations of GTPγS in 1 mM EDTA-containing buffer (NP-HPS). Further nucleotide exchange was inhibited with the addition of excess MgCl2 (60 mM final) and transfer to ice. Activated Cdc42 protein was isolated from solution by adding 15 μl GST-PAK-PBD bound glutathione beads and rotation at 4° C. for 1 h. Activated Cdc42 bound to GST-PAK-PDB was resolved by SDS-PAGE (12% gels) and analyzed by immunoblot using mAb directed against Cdc42 (Cytoskeleton, Inc.) and ECL (Thermo Scientific, Rockford, Ill.). Quantification was by densitometry.

wild-type Cdc42 = molecular target: T1, wild-type Cdc42 (Homo sapiens, UniProt P60953); assay: Equilibrium binding assay of BODIPY-FL-GTP; details: 1.5 nM substrate, 1 mM MgCl2; read-out: IC50, inhibition of fluorescent GTP binding to Cdc42 wt
T1 construct: purchased Cytoskeleton
Experimental: Changes in GTP binding affinity (Kd) and Bmax in the presence of a given compound were measured in multiplex (Cdc42, Cdc42Q61L, Rab2, Rab7, H-Ras and H-RasG12V) and single-plex formats (Rac1, Rac1Q61L and GST-GFP). GTPases and the GST-GFP control were individually bound to glutathione beads overnight at 4° C., washed with HPSE buffer, then resuspended together or assayed individually in the same buffer containing DTT and BSA. Bound GTPases were analyzed by mixing 5 μl protein-bound beads with 2.5-100 nM BODIPY-GTP in a total volume of 10 μl and incubating with rotation at 4° C. for 90 min. DMSO controls and samples treated with 10 μM of each test compound were run in parallel. Bound fluorescent nucleotide was measured using a Cyan ADP flow cytometer. Data were converted to ASCII format using IDLeQuery, exported and analyzed using Prism (GraphPad Software, Inc., San Diego, Calif.) non-linear, one-site binding.
Wild-type GST-Cdc42 (4 μM) was bound to GSH-beads overnight at 4° C. Cdc42 on GSH-beads was depleted of nucleotide by incubating with 10 mM EDTA containing buffer for 20 min at 30° C., washing twice with NP-HPS buffer, then re-suspended in the same buffer containing 1 mM EDTA/or 1 mM MgCl2, 1 mM DTT and 0.1% BSA. […] Samples incubated at 4° C. for 45 min and binding of fluorescent nucleotide to enzyme measured using an Accuri flow cytometer. […]

His-Cdc42 binding to GST-PAK-PBD, sequence (P60953 whole entry): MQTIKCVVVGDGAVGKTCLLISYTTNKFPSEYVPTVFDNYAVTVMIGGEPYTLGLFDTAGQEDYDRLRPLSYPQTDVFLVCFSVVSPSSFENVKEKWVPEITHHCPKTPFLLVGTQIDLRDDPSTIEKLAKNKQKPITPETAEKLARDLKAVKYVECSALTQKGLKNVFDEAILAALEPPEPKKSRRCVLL
T1 sequence (P60953 whole entry): as above

Question: Which results are given for `COc1ccc(C2CC(c3ccccc3)=NN2c2ccc(S(N)(=O)=O)cc2)cc1` (centres unmarked) [MLS000693334, 4-[3-(4-methoxyphenyl)-5-phenyl-3,4-dihydropyrazol-2-yl]benzenesulfonamide]?
Answer: Complex formation of active Cdc42(GTPγS) with PAK-PBD [1]: dramatically reduced; IC50 (wild-type Cdc42): 200 nM
